Legend:
[1] = RNA encapsulation efficiency of LNPs (Ribogreen fluorescence assay); format: physicochemical
Summary of the method: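 LNPs were diluted in 1× TE with 0.2% Triton X-100 (total RNA) or without it (free RNA), stained with RiboGreen for ~10 min at room temperature in the dark, and read at Ex 488/Em 525 nm against standard curves of the starting RNA. Encapsulation efficiency = (Total − Free)/Total.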

[2] = Dynamic light scattering of LNPs: Z-average diameter, number average diameter, PDI; format: physicochemical
Summary of the method: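 LNP samples were diluted in PBS and measured by DLS to give intensity-based Z-average diameter, number average diameter and polydispersity index. PDI describes size spread around the mean, with zero meaning a uniform population.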

[3] = tested on: Transthyretin (TTR); assay: Serum TTR ELISA in mice after LNP dosing; format: in vivo, CD-1 female mice; conditions: guide G282 experiments
Summary of the method: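 Female CD-1 mice, 6–10 weeks, given LNPs by tail-vein injection (~10 mL/kg), 0.1 mg/kg unless noted; serum taken at day 6 or 7 by cardiac puncture. Total mouse TTR by ELISA on sera diluted 10,000-fold (0.1 mg/kg) or 10,000- and 2,500-fold (0.3 mg/kg).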

[4] = tested on: TTR rat gene; assay: In vivo editing in rat liver, sgRNA targeting TTR (G534), % indel by NGS; set-up: species or system Sprague Dawley female rats; conditions: G534 sgRNA + Cas9 mRNA LNP, Experiment 109
Protocol: Sprague Dawley female rats ranging from 6-7 weeks of age were used in each study. Each animal was weighed and dosing solutions were prepared based on body weight. LNPs were dosed via the lateral tail vein in a volume of 0.35 mL per animal (approximately 2 mL per kilogram body weight). The animals were periodically observed for adverse effects for at least 24 hours post dose.
For studies measuring in vivo editing in liver, animals were dosed at 0.1 mg/kg or 0.3 mg/kg. Animals were euthanized by CO2 asphyxiation 6 days post dose. At necropsy, the liver was collected for editing analysis by NGS and blood was collected into serum separator tubes for serum TTR measurement.
In brief, to quantitatively determine the efficiency of editing at the target location in the genome, genomic DNA was isolated and deep sequencing was utilized to identify the presence of insertions and deletions introduced by gene editing.
PCR primers were designed around the target site (e.g., within B2M), and the genomic area of interest was amplified. Additional PCR was performed according to the manufacturer's protocols (Illumina) to add the necessary chemistry for sequencing. The amplicons were sequenced on an Illumina MiSeq instrument. The reads were aligned to the mouse or rat reference genome (e.g., GRCm38) after eliminating those having low quality scores. The resulting files containing the reads were mapped to the reference genome (BAM files), where reads that overlapped the target region of interest were selected and the number of wild type reads versus the number of reads which contain an insertion, substitution, or deletion was calculated.
The editing percentage (e.g., the “indel efficiency” or “percent indels”) was defined as the total number of sequence reads with insertions or deletions over the total number of sequence reads, including wild type.
In vivo delivery in a rat model was assessed by measuring editing efficiency for materials delivered with formulations including various amine lipid compounds. Cas9 mRNA (SEQ ID NO: 6) was formulated as LNPs with an sgRNA targetting the TTR rat gene (G534, SEQ ID NO: 5). LNPs were formulated and characterized as described in Example 123. Analysis of average particle size, polydispersity (PDI), total RNA content and encapsulation efficiency of RNA are shown in Table 10.
Sprague Dawley female rats were dosed i.v. at 0.1 or 0.3 mg/kg and assessed for editing in liver.

[5] = tested on: Transthyretin (TTR); assay: Serum TTR measurement in rats after LNP dosing; format: in vivo, Sprague Dawley female rats; conditions: Experiment 109; for Serum TTR % TSS: rat serum TTR relative to TSS control; for Serum TTR: rat serum, G534 sgRNA + Cas9 mRNA LNP
[6] = LNP with G534 sgRNA and Cas9 mRNA, sg:mRNA 1:2, experiment 109
[7] = LNP, sg:mRNA 1:1, N/P about 6, 50/9/38/3, Table 2, Experiments 2-20

% E (encapsulation efficiency) [1, 6]: 97%
Encapsulation (%) ([1]; LNP, sg:mRNA 1:1, N/P about 6, amine lipid/DSPC/cholesterol/PEG-2k-DMG 50/9/38/3, Table 2, Experiments 2-20): 83%
Number mean (nm) [2, 6]: 62 nm
PDI [2, 6]: 0.06
Z-avg (nm) [2, 6]: 80 nm
Number mean (nm) [2, 7]: 73.4 nm
PDI [2, 7]: 0.007
Z-avg (nm) [2, 7]: 88.53 nm
SMILES: CCCCC/C=C\C/C=C\CCCCCCCC(=O)OCC(COC(=O)CCC(OCCCCCCCC)OCCCCCCCC)COC(=O)NCCN(CC)CC (stereo not shown) [Compound 12, 3-((4,4-bis(octyloxy)butanoyl)oxy)-2-((((2-(diethylamino)ethyl)carbamoyl)oxy)methyl)propyl (9Z,12Z)-octadeca-9,12-dienoate]
Serum TTR % TSS ([3]; mouse serum TTR relative to TSS control): 81%
Serum TTR ([3]; mouse serum, ELISA): 736 µg/mL
Editing Mean % Indel ([4]; i.v. 0.1 mg/kg): 37.6%
Editing Mean % Indel ([4]; i.v. 0.3 mg/kg): 62.5%
Serum TTR % TSS ([5]; G534, i.v. 0.1 mg/kg): 45.9 % TSS
Serum TTR % TSS ([5]; G534, i.v. 0.3 mg/kg): 5.5 % TSS
Serum TTR ([5]; i.v. 0.1 mg/kg): 744.2 µg/mL
Serum TTR ([5]; i.v. 0.3 mg/kg): 89.1 µg/mL
